According to patent US20020019536A1, “NEW URETHANES, THIO AND DITHIO ANALOGUES AND THEIR USE AS INHIBITORS OF CHOLESTEROL BIOSYNTHESIS” (priority 1997, published 2002):

Columns and labels:
[1] = tested on: 14C-acetate incorporation into the steroids which can be precipitated with digitonin (cholesterol biosynthesis); test: Inhibition of 14C-acetate incorporation into the steroids which can be precipitated with digitonin; format: cell-based; conditions: for IC50: 14C-acetate incorporation
From the text: I. Measuring the Inhibition of ^14C-acetate incorporation into the steroids which can be precipitated with digitonin: The inhibitory effect was investigated using the method described in J. Lipid. Res. 37, 148-157 [1996] at test concentrations of 10^−8 and 10^−9 mol/l.

[2] = target: T1, 2,3-epoxysqualene-lanosterol-cyclase (Rattus norvegicus, UniProt P48450); test: In-vivo activity in the rat after oral administration: 2,3-epoxysqualene level in the liver
T1 construct: Measuring the in-vivo Activity in the Rat after Oral Administration; from tissue; host or cells: living rat; 2,3-epoxysqualene measured in the liver
T1 sequence (P48450 1-733): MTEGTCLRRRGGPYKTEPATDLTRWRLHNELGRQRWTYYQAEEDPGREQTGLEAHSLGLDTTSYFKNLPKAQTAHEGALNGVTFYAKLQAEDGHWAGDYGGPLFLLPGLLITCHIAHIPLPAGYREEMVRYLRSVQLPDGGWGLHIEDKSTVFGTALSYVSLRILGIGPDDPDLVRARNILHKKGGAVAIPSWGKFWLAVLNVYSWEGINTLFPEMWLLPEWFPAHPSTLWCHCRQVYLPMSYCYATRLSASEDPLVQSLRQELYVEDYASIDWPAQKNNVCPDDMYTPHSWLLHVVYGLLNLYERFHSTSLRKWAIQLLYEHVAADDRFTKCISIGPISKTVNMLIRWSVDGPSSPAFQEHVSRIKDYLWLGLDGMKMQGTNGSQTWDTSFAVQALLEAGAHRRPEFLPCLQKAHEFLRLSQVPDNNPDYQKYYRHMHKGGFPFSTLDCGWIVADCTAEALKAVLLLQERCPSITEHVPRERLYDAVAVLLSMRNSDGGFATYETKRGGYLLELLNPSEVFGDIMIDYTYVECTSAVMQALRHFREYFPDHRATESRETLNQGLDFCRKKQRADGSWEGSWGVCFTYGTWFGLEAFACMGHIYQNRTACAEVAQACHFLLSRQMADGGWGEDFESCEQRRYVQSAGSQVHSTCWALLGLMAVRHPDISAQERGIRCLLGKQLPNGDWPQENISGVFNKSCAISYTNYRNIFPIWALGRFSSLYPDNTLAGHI
Method: II. Measuring the in-vivo Activity in the Rat after Oral Administration
Inhibiting the enzyme 2,3-epoxysqualene-lanosterol-cyclase causes an increase in the 2,3-epoxisqualene levels in the liver and plasma. The quantity of 2,3-epoxysqualene formed therefore serves as a direct measurement of the potency on the animal as a whole. The amounts were determined using the method described in J. Lipid. Res. 38, 564-575, [1997] at t=3 or 8 hours after administration of the substance in concentrations of c=0.01, 0.03, 0.1, 0.3 and 1.0 mg/kg. Table 3 which follows gives the results obtained for the abovementioned substances A, B, C, E, G, H, O and R by way of example.
In the control animals there were no measurable 2,3-epoxisqualene levels under these conditions.

[3] = tested on: Sacch. carisbergensis ATCC 9080; test: Fungistatic activity, series dilution test; format: cell-based; conditions: Sabouraud broth, 2 to 4 days at 26° C.
Method: (§1) V. Determining the Fungistatic Activity
(§2) The fungistatic activity was determined by the series dilution test (microtitre system). Sabouraud broth was used as the nutrient medium. The inoculum amounted to about 10^4 to 10^5 CFU/ml (CFU=colony-forming units); the incubation period was 2 to 4 days at 26° C.
(§3) The lowest concentration which allows no visible growth (minimum inhibitory concentration MIC) was determined.
(§4) The abovementioned compounds B, E, G, I, K, L, N, Q and R were tested. The MIC is given in μg/ml.

Rhod. rubra 49 = test: Fungistatic activity, series dilution test; format: cell-based; conditions: Sabouraud broth, 2 to 4 days at 26° C.
Method: as §1, §2, §3, §4

[4] = tested on: Cand. albicans ATCC 10231; test: Fungistatic activity, series dilution test; format: cell-based; conditions: Sabouraud broth, 2 to 4 days at 26° C.
Method: as §1, §2, §3, §4

[5] = tested on: Trich. mentagrophytes ATCC 9129; test: Fungistatic activity, series dilution test; format: cell-based; conditions: Sabouraud broth, 2 to 4 days at 26° C.
Method: as §1, §2, §3, §4

Pen. notatum CBS 19746 = test: Fungistatic activity, series dilution test; format: cell-based; conditions: Sabouraud broth, 2 to 4 days at 26° C.
Method: as §1, §2, §3, §4

Asp. niger ATCC 16404 = test: Fungistatic activity, series dilution test; format: cell-based; conditions: Sabouraud broth, 2 to 4 days at 26° C.
Method: as §1, §2, §3, §4

[6] = Lipid reduction in the normolipaemic golden hamster; format: in vivo; conditions: dose 5.87 mg/kg/day, compared with control group
Method: III. Lipid Reduction in the Normolipaemic Golden Hamster This was determined using the method described in J. Lipid. Res. 38, 564-575, (1997). At the end of the experiment the total cholesterol, β-lipoprotein-cholesterol and HDL-cholesterol were determined and compared with the values of a control group which were fed without any test substance. The lipid-lowering activity of the abovementioned compounds E, G and I was tested.

[7] = 0.01 mg/kg oral, 3 h after administration
[8] = 0.01 mg/kg oral, 8 h after administration
[9] = 0.03 mg/kg oral, 3 h after administration
[10] = 0.03 mg/kg oral, 8 h after administration
[11] = 0.1 mg/kg oral, 3 h after administration
[12] = 0.1 mg/kg oral, 8 h after administration
[13] = 1.0 mg/kg oral, 3 h after administration
[14] = 1.0 mg/kg oral, 8 h after administration
[15] = 0.3 mg/kg oral, 3 h after administration
[16] = 0.3 mg/kg oral, 8 h after administration

## CN(C)Cc1ccc([C@H]2CC[C@H](N(C)C(=S)Sc3ccc(Cl)cc3)CC2)cc1 [A, trans-S-(4-chlorophenyl)-N-4-[4-(dimethylaminomethyl)-phenyl]cyclohexyl-N-methyldithiocarbamate]
[1]; test concentration 10^−8 mol/l
  percentage inhibition of 14C-acetate incorporation: −85%
[1]; test concentration 10^−9 mol/l
  percentage inhibition of 14C-acetate incorporation: −39%
[2]; [7]
  2,3-epoxysqualene concentration in the liver (rat): 0.0 µg/g
[2]; [8]
  2,3-epoxysqualene concentration in the liver (rat): 14.6 µg/g
[2]; [9]
  2,3-epoxysqualene concentration in the liver (rat): 11.8 µg/g
[2]; [10]
  2,3-epoxysqualene concentration in the liver (rat): 66.0 µg/g
[2]; [11]
  2,3-epoxysqualene concentration in the liver (rat): 62.6 µg/g
[2]; [12]
  2,3-epoxysqualene concentration in the liver (rat): 312.5 µg/g
[2]; [13]
  2,3-epoxysqualene concentration in the liver (rat): 136.5 µg/g
[2]; [14]
  2,3-epoxysqualene concentration in the liver (rat): 291.9 µg/g

## CN(C)Cc1ccc([C@H]2CC[C@H](N(C)C(=S)SCc3ccc(F)cc3)CC2)cc1.Cl [C, trans-S-(4-fluorobenzyl)-N-4-[4-(dimethylaminomethyl)-phenyl]cyclohexyl-N-methyldithiocarbamate-hydrochloride]
[1]; test concentration 10^−8 mol/l
  percentage inhibition of 14C-acetate incorporation: −87%
[1]; test concentration 10^−9 mol/l
  percentage inhibition of 14C-acetate incorporation: −52%
[2]; [7]
  2,3-epoxysqualene concentration in the liver (rat): 0.0 µg/g
[2]; [8]
  2,3-epoxysqualene concentration in the liver (rat): 84.8 µg/g
[2]; [9]
  2,3-epoxysqualene concentration in the liver (rat): 33.1 µg/g
[2]; [10]
  2,3-epoxysqualene concentration in the liver (rat): 57.8 µg/g
[2]; [11]
  2,3-epoxysqualene concentration in the liver (rat): 47.0 µg/g
[2]; [12]
  2,3-epoxysqualene concentration in the liver (rat): 133.1 µg/g
[2]; [15]
  2,3-epoxysqualene concentration in the liver (rat): 77.8 µg/g
[2]; [16]
  2,3-epoxysqualene concentration in the liver (rat): 196.5 µg/g
[2]; [13]
  2,3-epoxysqualene concentration in the liver (rat): 68.1 µg/g
[2]; [14]
  2,3-epoxysqualene concentration in the liver (rat): 243.9 µg/g

## CN(C)Cc1ccc([C@H]2CC[C@H](N(C)C(=S)SCc3ccc(Cl)cc3)CC2)cc1.Cl [D, trans-S-(4-chlorobenzyl)-N-4-[4-(dimethylaminomethyl)-phenyl]cyclohexyl-N-methyldithiocarbamate-hydrochloride]
[1]; test concentration 10^−8 mol/l
  percentage inhibition of 14C-acetate incorporation: −85%
[1]; test concentration 10^−9 mol/l
  percentage inhibition of 14C-acetate incorporation: −51%

## CN(C)Cc1ccc([C@H]2CC[C@@H](N(C)C(=S)SCc3ccccc3)CC2)cc1.Cl [F, cis-S-benzyl-N-4-[4-(dimethylaminomethyl)phenyl]-cyclohexyl-N-methyldithiocarbamate-hydrochloride]
[1]; test concentration 10^−8 mol/l
  percentage inhibition of 14C-acetate incorporation: −83%
[1]; test concentration 10^−9 mol/l
  percentage inhibition of 14C-acetate incorporation: −40%

## CN(C)Cc1ccc([C@H]2CC[C@H](N(C)C(=O)Sc3ccc(Cl)cc3)CC2)cc1.Cl [H, trans-S-(4-chlorophenyl)-N-4-[4-(dimethylaminomethyl)-phenyl]cyclohexyl-N-methylthiocarbamate-hydrochloride]
[1]
  IC50: 0.5 nM
[1]; test concentration 10^−8 mol/l
  percentage inhibition of 14C-acetate incorporation: −87%
[1]; test concentration 10^−9 mol/l
  percentage inhibition of 14C-acetate incorporation: −65%
[2]; [7]
  2,3-epoxysqualene concentration in the liver (rat): 2.9 µg/g
[2]; [8]
  2,3-epoxysqualene concentration in the liver (rat): 31.3 µg/g
[2]; [9]
  2,3-epoxysqualene concentration in the liver (rat): 25.7 µg/g
[2]; [10]
  2,3-epoxysqualene concentration in the liver (rat): 25.3 µg/g
[2]; [11]
  2,3-epoxysqualene concentration in the liver (rat): 117.7 µg/g
[2]; [12]
  2,3-epoxysqualene concentration in the liver (rat): 202.3 µg/g
[2]; [15]
  2,3-epoxysqualene concentration in the liver (rat): 70.3 µg/g
[2]; [16]
  2,3-epoxysqualene concentration in the liver (rat): 112.6 µg/g

## CN(C(=O)Oc1ccc(Cl)cc1)[C@H]1CC[C@H](c2ccc(CN3CCCC3)cc2)CC1.Cl [K, trans-O-(4-chlorophenyl)-N-methyl-N-4-[4-(pyrrolidinomethyl)phenyl]cyclohexylcarbamate-hydrochloride]
[1]; test concentration 10^−8 mol/l
  percentage inhibition of 14C-acetate incorporation: −81%
[1]; test concentration 10^−9 mol/l
  percentage inhibition of 14C-acetate incorporation: −53%
[3]
  MIC Sacc.: 128 µg/mL
Rhod. rubra 49
  MIC Rhod.: 32 µg/mL
[4]
  MIC Cand.: 64 µg/mL
[5]
  MIC Trich.: 2 µg/mL
Pen. notatum CBS 19746
  MIC Pen.: 8 µg/mL
Asp. niger ATCC 16404
  MIC Asp.: 16 µg/mL

## C=CCN(C)Cc1ccc([C@H]2CC[C@H](N(C)C(=O)Oc3ccc(Cl)cc3)CC2)cc1 [M, trans-O-(4-chlorophenyl)-N-methyl-N-4-[4-(N-methyl-N-allylaminomethyl)phenyl]cyclohexylcarbamate]
[1]; test concentration 10^−8 mol/l
  percentage inhibition of 14C-acetate incorporation: −93%
[1]; test concentration 10^−9 mol/l
  percentage inhibition of 14C-acetate incorporation: −74%

## Cc1ccc(OC(=O)N(C)[C@H]2CC[C@H](c3ccc(CN(C)C)cc3)CC2)cc1.Cl [O, trans-N-4-[4-(dimethylaminomethyl)phenyl]cyclohexyl-N-methyl-O-(4-methylphenyl)carbamate-hydrochloride]
[1]
  IC50: 0.8 nM
[1]; test concentration 10^−8 mol/l
  percentage inhibition of 14C-acetate incorporation: −83%
[1]; test concentration 10^−9 mol/l
  percentage inhibition of 14C-acetate incorporation: −57%
[6]
  HDL-cholesterol: −12.7%
  Total cholesterol: −17.3%
  β-Lipoprotein-cholesterol: −22.5%
[2]; [11]
  2,3-epoxysqualene concentration in the liver (rat): 53.4 µg/g
[2]; [12]
  2,3-epoxysqualene concentration in the liver (rat): 94.3 µg/g
[2]; [15]
  2,3-epoxysqualene concentration in the liver (rat): 72.6 µg/g
[2]; [16]
  2,3-epoxysqualene concentration in the liver (rat): 113.2 µg/g
[2]; [13]
  2,3-epoxysqualene concentration in the liver (rat): 117.9 µg/g
[2]; [14]
  2,3-epoxysqualene concentration in the liver (rat): 224.8 µg/g

## Cc1ccc(OC(=S)N(C)[C@H]2CC[C@H](c3ccc(CN(C)C)cc3)CC2)cc1.Cl [P, trans-N-4-[4-(dimethylaminomethyl)phenyl]cyclohexyl-N-methyl-O-(4-methylphenyl)thiocarbamate-hydrochloride]
[1]; test concentration 10^−8 mol/l
  percentage inhibition of 14C-acetate incorporation: −83%
[1]; test concentration 10^−9 mol/l
  percentage inhibition of 14C-acetate incorporation: −60%

## CN(C)Cc1ccc([C@H]2CC[C@H](N(C)C(=O)c3ccc(Cl)cc3)CC2)cc1 [V, reference compound]
[1]
  IC50: 3.8 nM
[1]; test concentration 10^−8 mol/l
  percentage inhibition of 14C-acetate incorporation: −59%
[1]; test concentration 10^−9 mol/l
  percentage inhibition of 14C-acetate incorporation: −23%

## Cc1ccc(CC(=O)O[C@H]2CC[C@H](c3ccc(CN(C)C)cc3)CC2)cc1 [W, trans-O-(p-tolylacetyl)-4-(4-dimethylaminomethylphenyl)-cyclohexanol, reference compound]
[1]
  IC50: 9.6 nM
[1]; test concentration 10^−8 mol/l, read-out: percentage inhibition of 14C-acetate incorporation
  inhibition at 0.01 µM: 72%
[1]; test concentration 10^−9 mol/l, read-out: percentage inhibition of 14C-acetate incorporation
  inhibition at 0.001 µM: 21%
